ChEMBL document CHEMBL5726765, “5-hydroxytryptamine receptor 7 activity modulators and their method of use” (2019)

Biological target: 5-hydroxytryptamine receptor 7 (Homo sapiens, UniProt P34969)
Test: A similar stock of the reference compound chlorpromazine is also prepared as a positive control. Eleven dilutions (5× assay concentration) of the compound of the disclosure and chlorpromazine are prepared in the Assay Buffer by serial dilution to yield final corresponding assay concentrations ranging from 10 pM to 10 μM.A stock concentration of 5 nM [3H]LSD (lysergic acid diethyl amide) is prepared in 50 mM Tris-HCl, 10 mM MgCl2, 1 mM EDTA, pH 7.4 (Assay Buffer). Aliquots (50 μl) of radioligand are dispensed into the wells of a 96-well plate containing 100 μl of Assay Buffer. Duplicate 50-μl aliquots of the compound of the disclosure test and chlorpromazine positive control reference compound serial dilutions are added.Membrane fractions of cells expressing recombinant 5HT7 receptors (50 μL) are dispensed into each well. […]

Chain of 5-hydroxytryptamine receptor 7 (P34969 whole entry): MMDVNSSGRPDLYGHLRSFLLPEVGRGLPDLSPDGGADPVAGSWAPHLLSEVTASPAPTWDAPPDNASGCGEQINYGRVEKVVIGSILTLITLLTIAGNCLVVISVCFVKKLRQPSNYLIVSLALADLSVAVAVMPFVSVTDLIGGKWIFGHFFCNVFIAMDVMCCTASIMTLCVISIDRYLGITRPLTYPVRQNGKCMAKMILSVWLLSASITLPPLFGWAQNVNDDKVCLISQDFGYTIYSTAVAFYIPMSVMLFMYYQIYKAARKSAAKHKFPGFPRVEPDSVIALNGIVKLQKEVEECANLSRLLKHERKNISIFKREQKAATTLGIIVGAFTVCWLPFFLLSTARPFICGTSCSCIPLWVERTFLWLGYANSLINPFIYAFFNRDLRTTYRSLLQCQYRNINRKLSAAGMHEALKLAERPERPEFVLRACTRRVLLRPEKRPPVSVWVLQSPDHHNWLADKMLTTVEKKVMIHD

IC50: 3.16 µM
SMILES: CCC1(CC)CC(CCN2CCC(C(O)(c3ccccc3)c3ccccc3)CC2)OC1=O (stereo unspecified)
